From ChEMBL document CHEMBL5257035, “Nucleoside Derived Antibiotics to Fight Microbial Drug Resistance: New Utilities for an Established Class of Drugs?” (J Med Chem, 2016)
Converted amounts (≈) assume the structure as drawn.

Columns and labels:
[1] = biological target: T1, Phospho-N-acetylmuramoyl-pentapeptide-transferase (Escherichia coli K-12, UniProt P0A6W3); test: Inhibition of MraY in Escherichia coli K12
T1 sequence (P0A6W3 whole entry): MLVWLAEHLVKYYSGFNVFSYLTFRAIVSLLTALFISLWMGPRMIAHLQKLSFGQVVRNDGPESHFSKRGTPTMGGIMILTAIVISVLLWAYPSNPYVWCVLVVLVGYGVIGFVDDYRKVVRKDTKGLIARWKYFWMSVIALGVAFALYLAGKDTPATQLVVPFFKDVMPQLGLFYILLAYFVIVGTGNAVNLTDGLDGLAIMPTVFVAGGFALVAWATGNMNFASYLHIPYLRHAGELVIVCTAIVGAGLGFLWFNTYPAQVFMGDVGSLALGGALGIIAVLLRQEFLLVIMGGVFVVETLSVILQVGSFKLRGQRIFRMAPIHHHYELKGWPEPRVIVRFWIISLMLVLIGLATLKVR

[2] = tested on: Escherichia coli; test: Antibacterial activity against Escherichia coli ATCC 25922 assessed as bacterial growth inhibition measured after 48 hrs by microdilution method; format: functional
[3] = tested on: Staphylococcus aureus; test: Antibacterial activity against methicillin-resistant Staphylococcus aureus SR3637 assessed as reduction in bacterial growth inhibition; format: functional
[4] = tested on: Mycobacterium kansasii; test: Antimycobacterial activity against Mycobacterium kansasii assessed as microbial growth reduction; format: functional
[5] = tested on: Mycobacterium intracellulare; test: Antimycobacterial activity against Mycobacterium intracellulare assessed as microbial growth reduction; format: functional
[6] = tested on: Mycobacterium avium; test: Antimycobacterial activity against Mycobacterium avium assessed as microbial growth reduction; format: functional
[7] = tested on: Cryptococcus neoformans; test: Antifungal activity against Cryptococcus neoformans assessed as reduction in fungal growth; format: functional
[8] = tested on: Coccidioides immitis; test: Antifungal activity against Coccidioides immitis assessed as reduction in fungal growth; format: functional
[9] = tested on: Mycolicibacterium smegmatis; test: Antibacterial activity against Mycobacterium smegmatis SANK75075 assessed as bacterial growth inhibition; format: functional
[10] = tested on: Pseudomonas aeruginosa; test: Antibacterial activity against Pseudomonas aeruginosa assessed as bacterial growth reduction; format: functional
[11] = tested on: Cutaneotrichosporon cutaneum; test: Antifungal activity against Trichosporon cutaneum 3071 assessed as reduction in microbial growth inhibition for 48 hrs by broth microdilution assay; format: functional
[12] = tested on: Candida albicans; test: Antifungal activity against Candida albicans SC5314 assessed as reduction in microbial growth inhibition incubated for 48 hrs by broth microdilution assay; format: functional
[13] = Cytotoxicity against human HepG2 cells assessed as reduction in cell viability incubated for 72 hrs by MTT assay; format: toxicity, cell-based

CCCCNC[C@@H](O[C@@H]1O[C@H](CN)[C@@H](O)[C@H]1O)[C@H]1O[C@@H](n2ccc(=O)[nH]c2=O)[C@H](O)[C@@H]1O
IC50 [1]: 330 nM | MIC [2]: 2.5 µg/mL (≈ 5.43 µM)

CCCCCCCCCCCCCC[C@@H](NC(=O)C(C)CCCNC(=N)N)C(=O)NC[C@@H]1C[C@H]2[C@@H](C(=O)N1)[C@@H]([C@H]1O[C@@H](n3ccc(=O)[nH]c3=O)[C@H](O)[C@@H]1O)ON2CCCN (stereo not given in full)
MIC [3]: 8 µg/mL (≈ 9.42 µM)

CCCCCCCCCCCC(=O)O[C@@H]1[C@H](OC)[C@@H]([C@@H](O[C@@H]2OC(C(=O)N[C@H]3CCC[C@@H](C)NC3=O)=C[C@@H](O)[C@H]2O)C(N)=O)O[C@H]1n1ccc(=O)[nH]c1=O
MIC [4]: 0.063 µg/mL (≈ 0.0823 µM) | MIC [5]: 0.063 µg/mL (≈ 0.0823 µM) | MIC [6]: 0.063 µg/mL (≈ 0.0823 µM)

N[C@@H](Cc1ccc(O)cc1)C(=O)N[C@H](C(=O)O)[C@@H]1C[C@@H](O)[C@@H](O)[C@H](n2ccc(=O)[nH]c2=O)O1
MIC [7]: 0.25 µg/mL (≈ 0.538 µM) | MIC [8]: 0.25 µg/mL (≈ 0.538 µM)

CO[C@H]1[C@@H](O)[C@H](n2ccc(=O)[nH]c2=O)O[C@@H]1[C@@H](O[C@@H]1OC(C(=O)NCCCSC)=C[C@@H](O)[C@H]1O)C(N)=O
MIC [9]: 12.5 µg/mL (≈ 22.9 µM)

C[C@@H]([C@H](NC(=O)[C@H](Cc1ccccc1)NC(=O)N[C@@H](Cc1c[nH]c2ccccc12)C(=O)O)C(=O)NCC1C[C@@H](O)[C@H](n2ccc(=O)[nH]c2=O)O1)N(C)C(=O)[C@@H](N)Cc1ccc(F)cc1 (stereo not given in full)
MIC [10]: 16 µg/mL (≈ 18.1 µM)

C[C@H](N)C(=O)N(C)[C@@H](C)[C@H](NC(=O)[C@H](Cc1ccccc1)NC(=O)N[C@@H](Cc1c[nH]c2ccccc12)C(=O)O)C(=O)NCC1C[C@@H](O)[C@H](n2ccc(=O)[nH]c2=O)O1 (stereo not given in full)
MIC [10]: 16 µg/mL (≈ 20.3 µM)

CCCCCCCCCCCCCC[C@@H](NC(=O)C(C)CCCNC(=N)N)C(=O)NC[C@@H]1C[C@H]2[C@@H](C(=O)N1)[C@H]([C@H]1O[C@@H](n3ccc(=O)[nH]c3=O)[C@H](O)[C@@H]1O)ON2CCCN (stereo not given in full)
MIC [3]: 8 µg/mL (≈ 9.42 µM)

CCCCNC(=O)C1=C[C@@H](O)[C@@H](O)[C@H](O[C@@H](C(N)=O)[C@H]2O[C@@H](n3ccc(=O)[nH]c3=O)[C@H](O)[C@@H]2OC)O1
MIC [9]: 12.5 µg/mL (≈ 24.3 µM)

CCCCCCCCCC(=O)O[C@@H]1[C@H](OC)[C@@H]([C@@H](O[C@@H]2OC(C(=O)N[C@H]3CCC[C@@H](C)NC3=O)=C[C@@H](O)[C@H]2O)C(N)=O)O[C@H]1n1ccc(=O)[nH]c1=O
MIC [4]: 0.063 µg/mL (≈ 0.0854 µM) | MIC [5]: 0.063 µg/mL (≈ 0.0854 µM) | MIC [6]: 0.063 µg/mL (≈ 0.0854 µM)

C/C=C1\CN(C(=O)[C@@H](NC(=O)[C@@H](N)[C@H](O)[C@@H](O)COC(N)=O)[C@H]2O[C@@H](n3cc(CO)c(=O)[nH]c3=O)[C@H](O)[C@@H]2O)[C@H]1C(=O)O
MIC [11]: 256 µg/mL | MIC [12]: > 256 µg/mL

CCCCCCCNC[C@@H](O[C@@H]1O[C@H](CN)[C@@H](O)[C@H]1O)[C@H]1O[C@@H](n2ccc(=O)[nH]c2=O)[C@H](O)[C@@H]1O
IC50 [1]: 330 nM | MIC [2]: 2.5 µg/mL (≈ 4.97 µM)

CCCCOc1ccc(-c2ccc(CC[C@@H](NC(=O)[C@@H](NC(=O)N[C@H](C(=O)O)C(C)C)[C@@H]3CCNC(=N)N3)C(=O)NCCCNC(C(=O)O)[C@H](O[C@@H]3O[C@H](CN)[C@@H](O)[C@H]3O)[C@H]3O[C@@H](n4ccc(=O)[nH]c4=O)[C@H](O)[C@@H]3O)cc2)cc1 (stereo not given in full)
IC50 at 72 h [13]: > 100 µg/mL

CC(C)C[C@@H](NC(=O)[C@@H](NC(=O)N[C@H](C(=O)O)C(C)C)[C@@H]1CCNC(=N)N1)C(=O)NCCCNC(C(=O)O)[C@H](O[C@@H]1O[C@H](CN)[C@@H](O)[C@H]1O)[C@H]1O[C@@H](n2ccc(=O)[nH]c2=O)[C@H](O)[C@@H]1O (stereo not given in full)
IC50 at 72 h [13]: > 100 µg/mL

NC(=O)OC[C@H](O)[C@@H](O)[C@H](N)C(=O)N[C@H](C(=O)NC(CCC(=O)O)C(=O)O)[C@H]1O[C@@H](n2ccc(=O)[nH]c2=O)[C@H](O)[C@@H]1O (stereo not given in full)
MIC [11]: 256 µg/mL | MIC [12]: > 256 µg/mL

CC(C)[C@H](NC(=O)N[C@H](C(=O)N[C@@H](CCCCCCCc1ccc(-c2ccccc2)cc1)C(=O)NCCCNC(C(=O)O)[C@H](O[C@@H]1O[C@H](CN)[C@@H](O)[C@H]1O)[C@H]1O[C@@H](n2ccc(=O)[nH]c2=O)[C@H](O)[C@@H]1O)[C@@H]1CCNC(=N)N1)C(=O)O (stereo not given in full)
IC50 at 72 h [13]: > 100 µg/mL

CO[C@H]1[C@@H](O)[C@H](n2ccc(=O)[nH]c2=O)O[C@@H]1[C@@H](O[C@@H]1OC(C(=O)Nc2ccccc2)=C[C@@H](O)[C@H]1O)C(N)=O
MIC [9]: 6.25 µg/mL (≈ 11.7 µM)

NC(=O)OC[C@H](O)[C@@H](O)[C@H](N)C(=O)N[C@H](C(=O)NC(CCC(=O)O)C(=O)O)[C@H]1O[C@@H](n2cc(C=O)[nH]c2=O)[C@H](O)[C@@H]1O (stereo not given in full)
MIC [11]: 256 µg/mL | MIC [12]: > 256 µg/mL

CSCC[C@H](N)C(=O)N[C@H](C(=O)O)[C@@H]1C[C@@H](O)[C@@H](O)[C@H](n2ccc(=O)[nH]c2=O)O1
MIC [7]: 0.25 µg/mL (≈ 0.578 µM) | MIC [8]: 0.25 µg/mL (≈ 0.578 µM)
